Reference: ChEMBL document CHEMBL5346863, “Discovery of substituted benzyloxy-benzylamine inhibitors of acetyltransferase Eis and their anti-mycobacterial activity” (Eur J Med Chem, 2022)
Converted amounts (≈) assume the structure as drawn. The source made the active and inactive calls. The rule behind the calls is not given here.

Columns and labels:
N-acetyltransferase Eis = biological target: T1, N-acetyltransferase Eis (Mycobacterium tuberculosis (strain ATCC 25618 / H37Rv), UniProt P9WFK7); test: Inhibition of wild-type Mycobacterium tuberculosis Eis expressed in Escherichia coli BL21(DE3) cells incubated for 5 mins by Ellman's method
T1 sequence (P9WFK7 whole entry): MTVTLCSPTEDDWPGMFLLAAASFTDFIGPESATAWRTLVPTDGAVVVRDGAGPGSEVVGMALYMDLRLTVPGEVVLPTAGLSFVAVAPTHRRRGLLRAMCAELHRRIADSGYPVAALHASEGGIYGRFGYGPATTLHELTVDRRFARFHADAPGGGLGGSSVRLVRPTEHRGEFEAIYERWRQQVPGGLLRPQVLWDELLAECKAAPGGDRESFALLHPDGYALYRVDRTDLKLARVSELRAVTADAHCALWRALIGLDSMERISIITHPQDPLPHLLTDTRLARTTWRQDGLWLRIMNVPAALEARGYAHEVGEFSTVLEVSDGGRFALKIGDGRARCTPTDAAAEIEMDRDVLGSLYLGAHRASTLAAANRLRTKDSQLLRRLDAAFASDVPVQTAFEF

[1] = system: Mycobacterium tuberculosis; test: Antibacterial activity against Mycobacterium tuberculosis H37Ra assessed as bacterial growth inhibition incubated 2 to 3 weeks by resazurin dye based assay; assay type: functional; conditions: time 2-3 weeks
[2] = system: Mycobacterium tuberculosis; test: Antibacterial activity against Mycobacterium tuberculosis mc2 6230 assessed as bacterial growth inhibition incubated 2 to 3 weeks by resazurin dye based assay; assay type: functional; conditions: time 2-3 weeks
[3] = system: Mycolicibacterium smegmatis; test: Antibacterial activity against Mycobacterium smegmatis mc2 122 assessed as bacterial growth inhibition incubated for 2 to 3 weeks by resazurin dye based assay; assay type: functional; conditions: time 2-3 weeks
[4] = system: Mycobacteroides abscessus; test: Antibacterial activity against Mycobacterium abscessus ATCC 19977 assessed as bacterial growth inhibition incubated for 2 to 3 weeks by resazurin dye based assay; assay type: functional; conditions: time 2-3 weeks
Mycobacterium avium = test: Antibacterial activity against Mycobacterium avium ATCC 25291 assessed as bacterial growth inhibition incubated for 2 to 3 weeks by resazurin dye based assay; assay type: functional; conditions: time 2-3 weeks
[5] = system: Mycobacterium intracellulare; test: Antibacterial activity against Mycobacterium intracellulare ATCC 13950 assessed as bacterial growth inhibition incubated for 2 to 3 weeks by resazurin dye based assay; assay type: functional; conditions: time 2-3 weeks
[6] = system: Mycobacterium parascrofulaceum; test: Antibacterial activity against Mycobacterium parascrofulaceum ATCC BAA-614 assessed as bacterial growth inhibition incubated for 2 to 3 weeks by resazurin dye based assay; assay type: functional; conditions: time 2-3 weeks
[7] = system: Mycobacterium tuberculosis; test: Antibacterial activity against Mycobacterium tuberculosis H37Rv assessed as MIC of kanamycin A at 100 uM incubated for 24 hrs followed by kanamycin A addition measured after 6 days by alamarblue dye based assay; assay type: functional; conditions: for MIC: 168 h, time 7 day; for Activity: time 7.0 day
[8] = system: Mycobacterium tuberculosis; test: Antibacterial activity against Mycobacterium tuberculosis mc2 6230 assessed as MIC of kanamycin A at 25 uM incubated for 24 hrs followed by kanamycin A addition measured after 6 days by alamarblue dye based assay; assay type: functional; conditions: mc2 6230, 168 h, time 7 day
[9] = system: Mycobacterium tuberculosis; test: Antibacterial activity against Mycobacterium tuberculosis mc2 6230 K204 assessed as MIC of kanamycin A at 25 uM incubated for 24 hrs followed by kanamycin A addition measured after 6 days by alamarblue dye based assay; assay type: functional; conditions: Mycobacterium tuberculosis, mc2 6230 K204, 168 h, time 7 day, read-out: MIC
A549 = test: Cytotoxicity against human A549 cells upto 12.5 uM incubated for 24 hrs by resazurin dye based cell viability assay; assay type: toxicity; conditions: a549, 24 h
HEK293 = test: Cytotoxicity against HEK293 cells upto 12.5 uM incubated for 24 hrs by resazurin dye based cell viability assay; assay type: toxicity; conditions: human, hek293, 24 h
J774.1 = test: Cytotoxicity against mouse J774.1 cells upto 12.5 uM incubated for 24 hrs by resazurin dye based cell viability assay; assay type: toxicity; conditions: j774.1, 24 h
[10] = system: Mycobacterium tuberculosis; test: Antibacterial activity against Mycobacterium tuberculosis H37Rv assessed as MIC of kanamycin A at 71.7 uM incubated for 24 hrs followed by kanamycin A addition measured after 6 days by alamarblue dye based assay; assay type: functional, organism-based; conditions: time 7.0 day
[11] = system: Mycobacterium tuberculosis; test: Antibacterial activity against Mycobacterium tuberculosis K204 assessed as MIC of kanamycin A at 71.7 uM incubated for 24 hrs followed by kanamycin A addition measured after 6 days by alamarblue dye based assay; assay type: functional, organism-based; conditions: time 7.0 day

| SMILES | IC50 (N-acetyltransferase Eis) [µM] | MIC [1] [µM] | MIC [2] [µM] | MIC [3] [µM] | MIC [4] [µM] | MIC (Mycobacterium avium) [µM] | MIC [5] [µM] | MIC [6] [µM] | MIC [7] [µg/mL] | MIC [8] [µM] | MIC [9] [µM] | Activity [7] | Activity (A549) | Activity (HEK293) | Activity (J774.1) | Activity [10] | Activity [11] |
| --- | --- | --- | --- | --- | --- | --- | --- | --- | --- | --- | --- | --- | --- | --- | --- | --- | --- |
| Brc1ccccc1COc1ccc(CNCc2ccccc2)cc1 | ~8 | 3.9 (≈ 1.49 µg/mL) | 100 (≈ 38.2 µg/mL) | 1 (≈ 0.382 µg/mL) | 31.3 (≈ 12 µg/mL) | 15.6 (≈ 5.96 µg/mL) | 3.9 (≈ 1.49 µg/mL) | 3.9 (≈ 1.49 µg/mL) | – | – | – | – | – | – | – | – | – |
| Brc1ccc(COc2ccccc2CNCc2ccncc2)cc1 | 4.3 | – | 25 (≈ 9.58 µg/mL) | > 62.5 | > 62.5 | > 62.5 | – | – | ≤ 1.25 | – | – | – | – | – | – | – | – |
| Brc1cccc(COc2ccc(CNCc3ccccc3)cc2)c1 | 2.4 | 3.9 (≈ 1.49 µg/mL) | 50 (≈ 19.1 µg/mL) | 2 (≈ 0.765 µg/mL) | 31.3 (≈ 12 µg/mL) | 31.3 (≈ 12 µg/mL) | 3.9 (≈ 1.49 µg/mL) | 2 (≈ 0.765 µg/mL) | – | < 1.25 | ≤ 1.25 | – | – | – | – | – | – |
| c1ccc(CNCc2ccc(OCc3ccc(-c4ccccc4)cc3)cc2)cc1 | > 200 | 2 (≈ 0.759 µg/mL) | 12.5 (≈ 4.74 µg/mL) | – | 7.8 (≈ 2.96 µg/mL) | > 62.5 | 7.8 (≈ 2.96 µg/mL) | 15.6 (≈ 5.92 µg/mL) | – | – | – | – | – | – | – | – | – |
| c1ccc(CNCc2ccc(OCc3ccccc3)cc2)cc1 | > 200 | 62.5 (≈ 19 µg/mL) | 100 (≈ 30.3 µg/mL) | – | > 62.5 | 62.5 (≈ 19 µg/mL) | 15.6 (≈ 4.73 µg/mL) | 3.9 (≈ 1.18 µg/mL) | – | – | – | – | – | – | – | – | – |
| Clc1ccc(COc2ccccc2CNCc2ccccc2)cc1 | 5.4 | 31.3 (≈ 10.6 µg/mL) | 50 (≈ 16.9 µg/mL) | 31.3 (≈ 10.6 µg/mL) | – | > 62.5 | 31.3 (≈ 10.6 µg/mL) | 31.3 (≈ 10.6 µg/mL) | – | – | – | Active | Non-Toxic | Non-Toxic | Non-Toxic | – | – |
| Fc1ccc(COc2ccc(CNCc3cccnc3)cc2)cc1 | 3.9 | 31.3 (≈ 10.1 µg/mL) | 50 (≈ 16.1 µg/mL) | – | 31.3 (≈ 10.1 µg/mL) | > 62.5 | 31.3 (≈ 10.1 µg/mL) | – | – | – | – | Active | – | – | – | Active | Active |
| c1ccc(CNCc2ccccc2OCc2ccccc2)cc1 | ~15 | – | 100 (≈ 30.3 µg/mL) | > 62.5 | – | > 62.5 | 31.3 (≈ 9.5 µg/mL) | 15.6 (≈ 4.73 µg/mL) | – | – | – | Active | – | – | – | – | – |
| c1ccc(COc2ccccc2CNCc2cccnc2)cc1 | ~50 | > 250 | > 100 | > 62.5 | > 62.5 | > 62.5 | > 62.5 | > 62.5 | 2.5 | – | – | – | – | – | – | – | – |
| c1ccc(COc2ccc(CNCc3ccncc3)cc2)cc1 | ~40 | > 62.5 | 50 (≈ 15.2 µg/mL) | > 62.5 | > 62.5 | 2 (≈ 0.609 µg/mL) | 62.5 (≈ 19 µg/mL) | – | – | – | – | – | – | – | – | – | – |
| Clc1ccc(COc2cccc(CNCc3ccccc3)c2)cc1 | 5.4 | 15.6 (≈ 5.27 µg/mL) | 12.5 (≈ 4.22 µg/mL) | – | 31.3 (≈ 10.6 µg/mL) | – | – | – | – | – | – | – | – | – | – | – | – |
| NNC(=O)c1ccncc1 [ISONIAZID] | – | – | – | 3.9 (≈ 0.535 µg/mL) | > 31.3 | > 31.3 | 3.9 (≈ 0.535 µg/mL) | 7.8 (≈ 1.07 µg/mL) | – | – | – | – | – | – | – | – | – |
| CC(C)(C)c1ccc(COc2ccc(CNCc3ccccc3)cc2)cc1 | > 200 | 1 (≈ 0.36 µg/mL) | 12.5 (≈ 4.49 µg/mL) | 3.9 (≈ 1.4 µg/mL) | 7.8 (≈ 2.8 µg/mL) | 31.3 (≈ 11.3 µg/mL) | – | – | – | – | – | – | – | – | – | – | – |
| Clc1cccc(COc2ccccc2CNCc2ccccc2)c1 | 6.5 | 31.3 (≈ 10.6 µg/mL) | 50 (≈ 16.9 µg/mL) | 62.5 (≈ 21.1 µg/mL) | 31.3 (≈ 10.6 µg/mL) | > 62.5 | – | – | – | – | – | Active | Non-Toxic | Non-Toxic | Non-Toxic | – | – |
